Patent US11840686B2, “Modulation of prekallikrein (PKK) expression” (Ionis Pharmaceuticals, Inc., priority 2013, dated 2023)
Strand notation (5' to 3'): a small letter for the sugar, then the base; units joined by * are phosphorothioate-linked, units joined directly phosphodiester-linked; [ ] holds rarer units or linkages, { } end groups; capitals alone tell only the bases. e = 2'-O-(2-methoxyethyl) (MOE); [5mC] = 5-methylcytosine; d = 2'-deoxy (DNA)

Legend:
[1] = system: basal vascular permeability; assay: Dose-dependent effect on basal vascular permeability, Evans Blue OD600 (Example 14); assay type: in vivo, mouse; settings: for OD600 nm of Evans Blue dye, Colon / OD600 nm of Evans Blue dye, Ears / OD600 nm of Evans Blue dye, Feet: basal
Method: The effect of varying doses on ISIS 482584 on basal vascular permeability was evaluated.
Group 1 consisted of 8 mice and was treated with PBS administered subcutaneously twice a week for 3 weeks. No other treatment was administered to Group 1 which served as a control group to measure the basal levels of vascular permeability.
Group 2 consisted of 4 mice and was treated with PBS administered subcutaneously twice a week for 3 weeks. At the end of the treatment period, the mice were intraperitoneally administered 30 μg of HOE-140. Group 2 served as a positive control for inhibition of basal vascular permeability.
Groups 3, 4, 5, 6, 7, and 8 consisted of 8 mice each and were treated with 2.5 mg/kg, 5 mg/kg, 10 mg/kg, 20 mg/kg, 40 mg/kg, or 80 mg/kg (corresponding to 5 mg/kg, 10 mg/kg, 20 mg/kg, 40 mg/kg, 80 mg/kg, or 160 mg/kg per week), respectively of ISIS 482584 administered subcutaneously twice a week for 3 weeks. […] served as the experimental treatment groups for examining the effect of varying doses of ISIS 482584 on basal vascular permeability.
All the groups were then injected with 30 mg/kg of Evans Blue solution in the tail vein. The mice were sacrificed 30 min after the Evans Blue solution administration and colons, feet, and ears were harvested and examined for permeability defects. Blood samples were taken through cardiac puncture.
The harvested tissues from the feet, colon, and ears were placed in formamide solution overnight to leach out the Evans Blue dye. The formamide solution containing feet and ear tissue was heated to 55° C. and left overnight. Higher OD values are associated with higher levels of permeability.

[2] = system: basal and captopril-induced vascular permeability; assay: Evans Blue basal and captopril-induced vascular permeability in mice (Example 12); assay type: in vivo, mouse; settings: for OD600 nm of Evans Blue dye, Colon / OD600 nm of Evans Blue dye, Ears / OD600 nm of Evans Blue dye, Feet / OD600 nm of Evans Blue dye, Intestine: ISIS 482584 40 mg/kg sc twice a week 4 weeks, HOE-140 30 μg ip
Method: Basal permeability is the level of vascular permeability occurring in the tissues of naïve, untreated mice. The effect of ISIS 482584 in the prevention of vascular permeability, either basal or captopril-induced, was evaluated.
Group 1 consisted of 8 mice and was treated with PBS administered subcutaneously twice a week for 4 weeks. No other treatment was administered to Group 1 which served as a control group to measure the basal levels of vascular permeability.
Group 2 consisted of 8 mice and was treated with PBS administered subcutaneously twice a week for 4 weeks. At the end of the treatment period, the mice were intraperitoneally administered 20 μg of captopril. Group 2 served as the negative control group for captopril-induced vascular permeability.
Group 3 consisted of 8 mice and was treated with PBS administered subcutaneously twice a week for 4 weeks. At the end of the treatment period, the mice were intraperitoneally administered 30 μg of HOE-140. Group 3 served as a positive control for inhibition of basal vascular permeability.
Group 4 consisted of 8 mice and was treated with PBS administered subcutaneously twice a week for 4 weeks. At the end of the treatment period, the mice were intraperitoneally administered 20 μg of captopril. The mice were also intraperitoneally administered 30 μg of HOE-140. Group 4 served as a positive control for inhibition of captopril-induced vascular permeability.
(§1) Group 5 consisted of 8 mice and was treated with 40 mg/kg of ISIS 482584 administered subcutaneously twice a week for 4 weeks. Group 5 served as an experimental treatment group for examining the effect of ISIS 482584 on basal vascular permeability.
as §1, with “Group 6” for “Group 5”, “weeks. At the end of the treatment period, the mice were intraperitoneally administered 20 μg of captopril.” for “weeks.”, “on captopril-induced” for “on basal”
All the groups were then injected with 30 mg/kg of Evans Blue solution. The mice were sacrificed 30 min after the Evans Blue solution administration and colons, feet, ears, and intestines were harvested.
The harvested tissues from the feet, colon, intestine, and ears were placed separately in formamide solution overnight to leach out the Evans Blue dye. The formamide solution containing feet and ear tissue was heated to 55° C. and left overnight.

NC(N)=NCCC[C@@H](N)C(=O)N[C@@H](CCCN=C(N)N)C(=O)N1CCC[C@H]1C(=O)N1C[C@H](O)C[C@H]1C(=O)NCC(=O)N[C@@H](Cc1cccs1)C(=O)N[C@@H](CO)C(=O)N1Cc2ccccc2C[C@@H]1C(=O)N1[C@H](C(=O)N[C@@H](CCCN=C(N)N)C(=O)O)C[C@@H]2CCCC[C@@H]21 [HOE-140, Icatibant, reference compound]
OD600 nm of Evans Blue dye, Colon ([1]; HOE-140 30 μg ip): 0.24 | OD600 nm of Evans Blue dye, Ears ([1]; HOE-140 30 μg ip): 0.047 | OD600 nm of Evans Blue dye, Feet ([1]; HOE-140 30 μg ip): 0.09 | OD600 nm of Evans Blue dye, Colon ([2]; basal (captopril No)): 0.18 | OD600 nm of Evans Blue dye, Ears ([2]; basal (captopril No)): 0.03 | OD600 nm of Evans Blue dye, Feet ([2]; basal (captopril No)): 0.06 | OD600 nm of Evans Blue dye, Intestine ([2]; basal (captopril No)): 0.21 | OD600 nm of Evans Blue dye, Colon ([2]; captopril Yes): 0.29 | OD600 nm of Evans Blue dye, Ears ([2]; captopril Yes): 0.00 | OD600 nm of Evans Blue dye, Feet ([2]; captopril Yes): 0.03 | OD600 nm of Evans Blue dye, Intestine ([2]; captopril Yes): 0.14

ISIS 482584: 5-10-5 MOE gapmer targeting murine PKK, GGCATATTGGTTTTTGGAAT; SEQ ID NO: 2244 (antisense eG*eG*e[5mC]*eA*eT*dA*dT*dT*dG*dG*dT*dT*dT*dT*dT*eG*eG*eA*eA*eT)
basal vascular permeability ([1]; all doses (Groups 3-8), most of the tissues, vs PBS control): reduced basal vascular permeability | OD600 nm of Evans Blue dye, Colon ([1]; 5 mg/kg/week sc, 3 weeks): 0.32 | OD600 nm of Evans Blue dye, Ears ([1]; 5 mg/kg/week sc, 3 weeks): 0.009 | OD600 nm of Evans Blue dye, Feet ([1]; 5 mg/kg/week sc, 3 weeks): 0.11 | OD600 nm of Evans Blue dye, Colon ([1]; 10 mg/kg/week sc, 3 weeks): 0.31 | OD600 nm of Evans Blue dye, Ears ([1]; 10 mg/kg/week sc, 3 weeks): 0.015 | OD600 nm of Evans Blue dye, Feet ([1]; 10 mg/kg/week sc, 3 weeks): 0.10 | OD600 nm of Evans Blue dye, Colon ([1]; 20 mg/kg/week sc, 3 weeks): 0.26 | OD600 nm of Evans Blue dye, Ears ([1]; 20 mg/kg/week sc, 3 weeks): 0.009 | OD600 nm of Evans Blue dye, Feet ([1]; 20 mg/kg/week sc, 3 weeks): 0.11 | OD600 nm of Evans Blue dye, Colon ([1]; 40 mg/kg/week sc, 3 weeks): 0.27 | OD600 nm of Evans Blue dye, Ears ([1]; 40 mg/kg/week sc, 3 weeks): 0.011 | OD600 nm of Evans Blue dye, Feet ([1]; 40 mg/kg/week sc, 3 weeks): 0.11 | OD600 nm of Evans Blue dye, Colon ([1]; 80 mg/kg/week sc, 3 weeks): 0.24 | OD600 nm of Evans Blue dye, Ears ([1]; 80 mg/kg/week sc, 3 weeks): 0.014 | OD600 nm of Evans Blue dye, Feet ([1]; 80 mg/kg/week sc, 3 weeks): 0.09 | OD600 nm of Evans Blue dye, Colon ([1]; 160 mg/kg/week sc, 3 weeks): 0.25 | OD600 nm of Evans Blue dye, Ears ([1]; 160 mg/kg/week sc, 3 weeks): 0.019 | OD600 nm of Evans Blue dye, Feet ([1]; 160 mg/kg/week sc, 3 weeks): 0.11 | basal vascular permeability ([2]; 40 mg/kg s.c. twice a week for 4 weeks, Group 5 vs. Group 1): reduced basal vascular permeability | captopril-induced vascular permeability ([2]; 40 mg/kg s.c. twice a week for 4 weeks, Group 6 vs. Group 2): reduced captopril-induced vascular permeability in most tissues | OD600 nm of Evans Blue dye, Colon ([2]; basal (captopril No)): 0.19 | OD600 nm of Evans Blue dye, Ears ([2]; basal (captopril No)): 0.04 | OD600 nm of Evans Blue dye, Feet ([2]; basal (captopril No)): 0.07 | OD600 nm of Evans Blue dye, Intestine ([2]; basal (captopril No)): 0.22 | OD600 nm of Evans Blue dye, Colon ([2]; captopril Yes): 0.37 | OD600 nm of Evans Blue dye, Ears ([2]; captopril Yes): 0.00 | OD600 nm of Evans Blue dye, Feet ([2]; captopril Yes): 0.05 | OD600 nm of Evans Blue dye, Intestine ([2]; captopril Yes): 0.22
